From patent publication US8349316B2, “Lactobacillus fermentum SG-A95 for improving oral bacterial groups and health care compositions thereof” (priority 2010, dated 2013)

Key:
[1] = tested on: Actinomyces viscosus (ATCC 15987); experiment: Disc agar diffusion test; type: cell-based; conditions: 6 mm paper disc, 37, anaerobic, 24 hours, mean±S.D. (n=3); zone not over 6 mm = negative
Description: (§1) Lactobacillus fermentum SG-[…] was cultured in liquid medium. MRS medium was used in this embodiment. […]. The fermentation broth was concentrated into 30-fold of original concentration and dialyzed with SPECTRA/POR® Dialysis Membrane (MWCO:3500, Spectrum Laboratories Inc, CA) for 48 hours. Lactobacillus fermentum SG-[…] and concentrate fermentation product were diluted into various concentrations according to experimental requirements. Disc agar diffusion test, broth dilution method, and co-cultivation test of Lactobacillus fermentum SG-[…] with Streptococcus mutans (ATCC 25175), Streptococcus sanguis (ATCC 49295), Porphyromonas gingivalis (ATCC 33277), and Actinomyces viscosus (ATCC 15987) were separately performed to understand the inhibition of pathogen growth. Above four pathogens strains were purchased from Bioresource Collection and Research Center of Food Industry Research and Development Institute in Taiwan or ATCC. […] Dip bacteria culture with sterile cotton swab for 3 seconds, and each bacteria was smeared on agar plates in three directions to evenly distribute the incoculum. After dialyzing 30-fold fermentation product of Lactobacillus fermentum SG-[…], adjust concentrate to 4-fold concentrate (LFP4), 2-fold concentrate (LFP2) and 1-fold (LFP1) (unconcentrated fermentation broth). […] The diameter of sterile paper disc was 6 mm. The positive bacterial inhibition effect was determined by over 6 mm bacterial inhibition zone. Otherwise, it was defined as negative bacterial inhibition effect. The cultural condition was under the temperature of 37 for 24 hours. The paper disc was used in control group containing tetracycline. The inhibition zone value was shown as mean±S.D. (n=3).

[2] = tested on: Streptococcus sanguis (ATCC 49295); experiment: Disc agar diffusion test; type: cell-based; conditions: 6 mm paper disc, 37, anaerobic, 24 hours, mean±S.D. (n=3); zone not over 6 mm = negative
Description: as §1

[3] = tested on: Streptococcus mutans (ATCC 25175); experiment: Disc agar diffusion test; type: cell-based; conditions: 6 mm paper disc, 37, anaerobic, 24 hours, mean±S.D. (n=3); zone not over 6 mm = negative
Description: as §1

[4] = tested on: Porphyromonas gingivalis (ATCC 33277); experiment: Disc agar diffusion test; type: cell-based; conditions: 6 mm paper disc, 37, anaerobic, 24 hours, mean±S.D. (n=3); zone not over 6 mm = negative
Description: as §1

[5] = tested on: artificially induced periodontal disease (ligature wire, Streptococcus mutans inoculated in gum tissue); experiment: Evaluation of therapeutic effect for animal periodontal disease; type: in vivo, Balb/c mice; conditions: treatment group; for mice periodontal pocket depth: mean±S.D.
Description: (§2) This trial included treatment groups and control groups. The-treatment group of Lactobacillus fermentum SG-A95 were divided into 6 groups as follows: 3 groups of dialyzed Lactobacillus fermentum SG-A95 fermentation product concentrate such as 4-fold, 2-fold, and 1-fold (unconcentrated fermentation broth) and 3 groups of Lactobacillus fermentum SG-A95 in various numbers of bacteria such as 1×10^9, 2×10^9 and 5×10^9. Two control groups were treated with 0.267 mg/mL of tetracycline and distilled water.
Twelve of 8-week-old female Balb/c mice were selected for each group (Table 3). […] After diagnosis of diseased tissue by chief dentists, they were administered different concentrations of Lactobacillus fermentum SG-A95 fermentation product, live Lactobacillus fermentum SG-A95, 1 mL of 0.267 mg/mL tetracycline or distill water every day. The symptoms were recorded. The wire was removed at the beginning of the treatment and stop periodontal pathogen inoculation. At day 4, 8, 12, and 16 after wire removal, mice periodontal pocket depth was examined. 3 mice from each group were killed for blood sampling and histological analysis.
(§3) Control group was used as a standard to examine subjects from each group by Mann-Whitney test.
(§4) Experimental data was shown as mean±S.D. The statistical variation of treatment groups and control groups of mice periodontal pocket was performed by One-Way ANOVA and Dunnett multiple post hoc comparison in longitudinal study, and by One-Way ANOVA and LSD multiple post hoc comparison in cross-sectional study. Besides, Mann-Whitney test was used to examine the number of periodontal pocket improving individuals. The statistical significance level of p value was 0.05.

[6] = tested on: artificially induced periodontal disease (ligature wire, Streptococcus mutans inoculated in gum tissue); experiment: Evaluation of preventive effect for animal periodontal disease; type: in vivo, Balb/c mice; conditions: prevention group; for mice periodontal pocket depth: mean±S.D., listed as pTC
Description: as §2
Twelve of 8-week-old female Balb/c mice were selected for each group (Table 2). The mice were administered with various concentrations of Lactobacillus fermentum SG-A95 fermentation product or live Lactobacillus fermentum SG-A95, and 1 mL of 0.267 mg/mL tetracyccline or distilled water separately. […] Their pathological symptoms were observed and recorded until sacrificing all animals. Until the control group (feeding with distilled water, mock-treated group) showing gum swelling and dental plaque appearance diagnosed by chief dentists, the ligature wire was removed and inoculation of dental pathogen was stopped. At day 4, 8, 12, and 16 after wire removal, mice periodontal pocket depth was examined, 3 mice from each group were killed for blood sampling and samples were collected for histological analysis.
as §3, §4

For CN(C)[C@@H]1C(O)=C(C(N)=O)C(=O)[C@@]2(O)C(O)=C3C(=O)c4c(O)cccc4[C@@](C)(O)[C@H]3C[C@@H]12 [tetracycline], which “Bacterial inhibition zone, Actinomyces viscosus” value [1] is on record?
The value was 48.2 ± 2.4 mm.

And the “Bacterial inhibition zone, Streptococcus sanguis” value [2]?
Its value is 25.9 ± 1.2 mm.

What about the “Bacterial inhibition zone, Streptococcus mutans” value [3] of the same compound?
Its value is 29.7 ± 2.0 mm.

What about the “Bacterial inhibition zone, Porphyromonas gingivalis” value [4] of the same compound?
The value was 33.4 ± 2.2 mm.

What about the “periodontal pocket improvement percentage (percentage of improving individual)” value ([5]; Day 4, against tMT by Mann-Whitney test) of the same compound?
Its value is 30%.

And the “mice periodontal pocket depth” value ([5]; Day 4 after wire removal, listed as pTC)?
The value was 1.05 ± 0.64 mm.

And the “mice periodontal pocket depth” value ([5]; Day 4 after wire removal, listed as tTC)?
The value was 1.05 ± 0.64 mm.

What about the “periodontal pocket improvement percentage (percentage of improving individual)” value ([5]; Day 8, against tMT by Mann-Whitney test) of the same compound?
The value was 20%.

What about the “mice periodontal pocket depth” value ([5]; Day 8 after wire removal, listed as pTC) of the same compound?
The value was 0.89 ± 0.44 mm.

What about the “mice periodontal pocket depth” value ([5]; Day 8 after wire removal, listed as tTC) of the same compound?
Its value is 0.89 ± 0.44 mm.

What about the “periodontal pocket improvement percentage (percentage of improving individual)” value ([5]; Day 12, against tMT by Mann-Whitney test) of the same compound?
The value was 47%.

What about the “mice periodontal pocket depth” value ([5]; Day 12 after wire removal) of the same compound?
The value was 0.63 ± 0.37 mm.

And the “periodontal pocket improvement percentage (percentage of improving individual)” value ([5]; Day 16, against tMT by Mann-Whitney test)?
The value was 33%.

What about the “mice periodontal pocket depth” value ([5]; Day 16 after wire removal, listed as pTC) of the same compound?
Its value is 0.61 ± 0.34 mm.

And the “mice periodontal pocket depth” value ([5]; Day 16 after wire removal, listed as tTC)?
The value was 0.48 ± 0.33 mm.

What about the “periodontal pocket improvement percentage (percentage of improving individual)” value ([6]; Day 4, against pMT by Mann-Whitney test) of the same compound?
Its value is 62%.

And the “mice periodontal pocket depth” value ([6]; Day 4 after wire removal)?
The value was 0.84 ± 0.50 mm.

What about the “periodontal pocket improvement percentage (percentage of improving individual)” value ([6]; Day 8, against pMT by Mann-Whitney test) of the same compound?
Its value is 50%.

What about the “mice periodontal pocket depth” value ([6]; Day 8 after wire removal) of the same compound?
The value was 0.70 ± 0.34 mm.

And the “periodontal pocket improvement percentage (percentage of improving individual)” value ([6]; Day 12, against pMT by Mann-Whitney test)?
Its value is 71%.

What about the “mice periodontal pocket depth” value ([6]; Day 12 after wire removal) of the same compound?
Its value is 0.56 ± 0.26 mm.

What about the “periodontal pocket improvement percentage (percentage of improving individual)” value ([6]; Day 16, against pMT by Mann-Whitney test) of the same compound?
Its value is 100%.

And the “mice periodontal pocket depth” value ([6]; Day 16 after wire removal)?
The value was 0.49 ± 0.25 mm.
